Data: PubChem BioAssay (NCI)
Several values for one entry are separate records, joined by “and”; a condition that tells them apart may be missing. Identical values can stand only once.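 Briefly, cells in 96-well plates were exposed to five compound concentrations for 48 h, and endpoints were estimated by linear interpolation. At the GI50, growth is halved. At the TGI there is no net growth.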

Legend:
Assay in all cases: growth of human tumour cells (NCI), 48 h
[1] = tested on: OVCAR-5 ovarian
[2] = tested on: M14 melanoma
[3] = tested on: UO-31 renal
[4] = tested on: HS 578T breast
[5] = tested on: HOP-62 NSCLC
[6] = tested on: T-47D breast
[7] = tested on: MALME-3M melanoma
[8] = tested on: NCI-H460 lung
[9] = tested on: EKVX NSCLC
[10] = tested on: SF-295 CNS

Row | Compound | GI50 [1] | TGI [1] | GI50 [2] | TGI [2] | GI50 [3] | TGI [3] | GI50 [4] | TGI [4] | GI50 [5] | TGI [5] | GI50 [6] | TGI [6] | GI50 [7] | TGI [7] | GI50 [8] | TGI [8] | GI50 [9] [µM] | TGI [9] | GI50 [10] | TGI [10]
1 | COc1cc2nc3cc([N+](=O)[O-])ccc3c(NCCNCC(C)(C)O)c2cc1OC | 2.22 µM | 8.87 µM | 1.29 µM | 3.05 µM | 1.85 µM | 5.93 µM | 1.75 µM | 6.15 µM | 0.953 µM | 3.26 µM | 0.437 µM | 2.91 µM | 0.622 µM | 1.97 µM | 0.377 µM | 1.47 µM | 1.72 | 5.7 µM | 0.517 µM | 3.13 µM
2 | CN1CSC(=S)N(Cc2ccccc2)C1 | 16.5 µM | 30.2 µM | 6.65 µM | 21.8 µM | 7.93 µM | 21.5 µM | 11.4 µM | 45.7 µM | 18.6 µM | > 100 µM | 4.78 µM | 23.4 µM | 15.4 µM | 37.4 µM | 15.3 µM | 36.8 µM | 30.3 | > 100 µM | 32.7 µM | > 100 µM
3 | O=C(Nc1nc2ccccc2s1)Nc1ccc([N+](=O)[O-])cc1Cl | 10.4 µM | 25.7 µM | 7.15 µM | 20.7 µM | 2.24 µM | 6.44 µM | 3.98 µM | > 20.8 µM | 7.61 µM | 16.6 µM | 2.86 µM | 11.7 µM | 2.82 µM | 11.1 µM | 2.42 µM | 6.81 µM | 11 | 45.1 µM | 3.31 µM | 15.8 µM
4 | CSc1ccc2c(c1)C(N1CCN(C)CC1)Cc1ccccc1S2 (configuration not stated) | 1.95 µM | 7.25 µM and 3.67 µM |  | 3.77 µM and 3.53 µM | 1.8 µM | 13.8 µM and 5.44 µM | 2.51 µM | 15.9 µM and 10.9 µM | 1.8 µM | 23.6 µM and 3.29 µM | 2.19 µM | 42.5 µM and 5.17 µM |  | 4.28 µM and 3.41 µM | 1.74 µM | 7.12 µM and 3.45 µM | 2.08 | 8.64 µM and 7.13 µM | 1.84 µM | 15.2 µM and 3.7 µM
5 | Cn1ncc(Cl)c1-c1cc(C(=O)N[C@H](CN)Cc2ccc(F)c(F)c2)oc1Cl | 0.426 µM and 2.45 µM | 9.12 µM and > 10 µM | 1.59 µM and 1.49 µM | 5.7 µM and 3.71 µM | 0.97 µM and 0.36 µM | 11.7 µM and > 7.68 µM | 0.0905 µM and 0.126 µM | 2.08 µM and 2.86 µM | 2.14 µM and 2.7 µM | 14 µM and > 10 µM | 0.0193 µM and 0.0245 µM |  | 0.36 µM and 0.687 µM | 1.61 µM and 2.59 µM | 0.152 µM and 0.163 µM | 13 µM and > 10 µM | 2.77 | > 10 µM | 0.145 µM and 0.111 µM | 5.04 µM and 3.27 µM
6 | c1ccc2c3c([nH]c2c1)C(c1ccc(C2NCCc4c2[nH]c2ccccc42)cc1)NCC3 (configuration not stated) | 1.81 µM | 4.17 µM | 0.403 µM | 1.58 µM | 1.04 µM | 2.26 µM | 1.43 µM | 3.82 µM | 1.31 µM | 2.8 µM | 1.31 µM | 3.06 µM | 1.55 µM | 3.11 µM | 0.221 µM | 0.449 µM | 1.42 | 3.39 µM | 1.62 µM | 3.33 µM
